Experimental findings from PubChem BioAssay (NCI) are described below.

Among the test systems are U251 CNS; SK-OV-3 ovarian; SK-MEL-5 melanoma; IGROV1 ovarian; UACC-257 melanoma; SK-MEL-2 melanoma; LOX IMVI melanoma; UO-31 renal; COLO 205 colon; MALME-3M melanoma.
Holding throughout (test): NCI anticancer screen, dose series, 48 h

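Grown in 96-well plates, cells were treated for 48 hours with each compound at five concentrations. Insufficient inhibition: endpoint recorded as highest concentration tested. GI50: concentration for 50% inhibition of growth. Definition used: TGI = concentration required for complete inhibition of growth.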

For `CN(Cc1cnc2nc(N)nc(N)c2n1)c1c(Cl)cc(C(=O)NC(CCC(=O)O)C(=O)O)cc1Cl` (centres undefined), the GI50 in the test with U251 CNS is 0.0423 µM; in the test on SK-OV-3 ovarian it was 0.807 µM; in the test on SK-MEL-5 melanoma, 0.0483 µM; in the test on IGROV1 ovarian, less than 0.01 µM; with SK-MEL-2 melanoma it was more than 100 µM; with LOX IMVI melanoma it was less than 0.01 µM. For the same compound, the results for the GI50 with UO-31 renal, in the test on COLO 205 colon and in the test with MALME-3M melanoma were less than 0.01 µM, 0.08 µM and 81.4 µM, respectively. In addition, the TGI in the test on U251 CNS, with SK-OV-3 ovarian, in the test on SK-MEL-5 melanoma, with IGROV1 ovarian, in the test with UACC-257 melanoma and in the test with SK-MEL-2 melanoma was more than 100 µM throughout. In addition, the TGI in the test with LOX IMVI melanoma, in the test with UO-31 renal, in the test with COLO 205 colon and with MALME-3M melanoma was more than 100 µM throughout.
With `O=C(CC1(O)CCCCC1)OC1CCCC1`, the TGI in the test with U251 CNS, in the test with SK-OV-3 ovarian, with SK-MEL-5 melanoma, in the test on IGROV1 ovarian, in the test with UACC-257 melanoma and with SK-MEL-2 melanoma was more than 100 µM each time. Further, the TGI in the test on LOX IMVI melanoma, in the test on UO-31 renal, with COLO 205 colon and in the test with MALME-3M melanoma was more than 100 µM in each case.
With `CCNc1ccc2c(c1)C(=O)N(OS(C)(=O)=O)C2=O`, the TGI with U251 CNS, with SK-OV-3 ovarian, in the test on SK-MEL-5 melanoma, in the test on UACC-257 melanoma, in the test on SK-MEL-2 melanoma and in the test with LOX IMVI melanoma was more than 100 µM throughout. Besides, the TGI with UO-31 renal, in the test with COLO 205 colon and with MALME-3M melanoma was more than 100 µM each time.
Turning to `O=C(O)C(Cc1ccccc1)N1C(=O)/C(=C/C(Cl)=C/c2ccc([N+](=O)[O-])cc2)SC1=S` (centres undefined), the GI50 was 1.72 µM in the test on U251 CNS; 4.13 µM in the test with SK-OV-3 ovarian; 1.68 µM in the test with SK-MEL-5 melanoma; 1.97 µM in the test with UACC-257 melanoma; 1.87 µM in the test on SK-MEL-2 melanoma; 1.64 µM in the test with LOX IMVI melanoma. Moreover, the GI50 is 1.59 µM in the test on UO-31 renal, 2.45 µM in the test on COLO 205 colon and 2.13 µM in the test with MALME-3M melanoma. The TGI with U251 CNS was 3.52 µM; with SK-OV-3 ovarian, more than 100 µM; in the test on SK-MEL-5 melanoma, 3.06 µM; with UACC-257 melanoma it was 4.95 µM; in the test with SK-MEL-2 melanoma it was 4.5 µM; in the test on LOX IMVI melanoma, 3.26 µM. In addition, the TGI with UO-31 renal is 3.1 µM; in the test with COLO 205 colon it was 6.21 µM; in the test with MALME-3M melanoma, 4.82 µM.
Take `COc1cc(C=NCC(=O)CSC(c2ccccc2)c2ccccc2)ccc1O`: the GI50 with U251 CNS is 14 µM; in the test on SK-OV-3 ovarian, 3.58 µM; in the test with SK-MEL-5 melanoma, 4.83 µM; in the test with UACC-257 melanoma, 5.94 µM; with SK-MEL-2 melanoma, 14.9 µM; in the test on LOX IMVI melanoma, 10.5 µM. Moreover, the GI50 is 12.7 µM in the test with UO-31 renal, 10.6 µM in the test with COLO 205 colon and 6.11 µM with MALME-3M melanoma. For the same compound, the TGI stood at 26.9 µM with U251 CNS; 17.2 µM in the test on SK-OV-3 ovarian; 18.2 µM with SK-MEL-5 melanoma; 18.7 µM in the test on UACC-257 melanoma; 28.7 µM in the test with SK-MEL-2 melanoma; 23.5 µM with LOX IMVI melanoma. In addition, the figures for the TGI with UO-31 renal, with COLO 205 colon and with MALME-3M melanoma were 29.1 µM, 22.4 µM and 22.4 µM, respectively.
In the case of `O=C(O)CCN1C(=S)CSC1=S`, the TGI in the test with U251 CNS, in the test on SK-OV-3 ovarian, in the test on SK-MEL-5 melanoma, with IGROV1 ovarian, in the test with UACC-257 melanoma and in the test on SK-MEL-2 melanoma was more than 100 µM in each case. For the same compound, the TGI in the test on LOX IMVI melanoma, with COLO 205 colon and with MALME-3M melanoma was more than 100 µM throughout.
As for `O=C(OCC1=CC(=O)c2ccccc2C1=O)c1ccccc1`, the GI50 in the test on U251 CNS was 14.6 µM; in the test with SK-MEL-5 melanoma, 1.31 µM; with IGROV1 ovarian it was 12.5 µM; in the test on UACC-257 melanoma, 3.13 µM; in the test with SK-MEL-2 melanoma it was 12.3 µM; in the test with LOX IMVI melanoma it was 5.69 µM. For the same compound, the GI50 in the test on UO-31 renal is 15.6 µM; in the test with COLO 205 colon, 2.74 µM; in the test on MALME-3M melanoma, 1.43 µM. Also, the TGI in the test with U251 CNS was determined as 28.5 µM; in the test on SK-MEL-5 melanoma it was 2.68 µM; with IGROV1 ovarian, 25.6 µM; in the test with UACC-257 melanoma it was 9.47 µM; in the test on SK-MEL-2 melanoma it was 35.9 µM; with LOX IMVI melanoma it was 21.5 µM. For the same compound, the TGI with UO-31 renal was found to be 29.1 µM; in the test on COLO 205 colon, 10.7 µM; in the test with MALME-3M melanoma, 3.12 µM.
On to `O=C(Nc1ccccc1)N1C(c2ccccc2)=N[C@@H](c2ccccc2)[C@@H]1c1ccccc1`, for which the TGI in the test with SK-MEL-5 melanoma is 26.8 µM; in the test on IGROV1 ovarian, 53.4 µM; in the test on UACC-257 melanoma it was 35.3 µM; in the test with LOX IMVI melanoma, 28.2 µM; with UO-31 renal, 30.6 µM; in the test on COLO 205 colon it was 28.8 µM. The compound also showed a TGI with MALME-3M melanoma of 34.7 µM.
Turning to `CC(C)(C)OC(=O)NCCCCCCCCCCCCn1c2c(c3ccccc3c1=O)C(=O)c1ccccc1-2`, the GI50 with U251 CNS is 36 µM; with SK-OV-3 ovarian, 22.9 µM; with SK-MEL-5 melanoma it was more than 100 µM; in the test on UACC-257 melanoma it was more than 100 µM; in the test with SK-MEL-2 melanoma, 18.1 µM; in the test on LOX IMVI melanoma it was more than 100 µM. The GI50 in the test on UO-31 renal, in the test on COLO 205 colon and in the test on MALME-3M melanoma was more than 100 µM each time. Further, the TGI in the test on U251 CNS was more than 100 µM; with SK-OV-3 ovarian it was 74.1 µM; in the test on SK-MEL-5 melanoma it was more than 100 µM; with UACC-257 melanoma, more than 100 µM; in the test on SK-MEL-2 melanoma, 38.2 µM; in the test on LOX IMVI melanoma, more than 100 µM. The TGI with UO-31 renal, in the test on COLO 205 colon and with MALME-3M melanoma was more than 100 µM in each case.
Regarding `C=C(c1ccccc1)c1cc2c(=O)[nH]ccc2n1C`, the TGI in the test with SK-OV-3 ovarian was 69.4 µM; in the test with SK-MEL-5 melanoma, 71.1 µM; in the test on IGROV1 ovarian, more than 100 µM; with UACC-257 melanoma it was more than 100 µM; with SK-MEL-2 melanoma, 58.3 µM; in the test on LOX IMVI melanoma it was more than 100 µM. The TGI is 66.1 µM in the test with UO-31 renal, 35.6 µM with COLO 205 colon and more than 100 µM with MALME-3M melanoma.
For `Cc1cc(C)nc(NC(=O)COc2ccc(Cl)cc2)c1`, the TGI with U251 CNS, with SK-OV-3 ovarian, in the test on SK-MEL-5 melanoma, in the test with IGROV1 ovarian, with UACC-257 melanoma and in the test on SK-MEL-2 melanoma was more than 100 µM in each case. Moreover, the TGI in the test with LOX IMVI melanoma, in the test on COLO 205 colon and in the test with MALME-3M melanoma was more than 100 µM each time.
